The source of these data is patent publication US12509447B2, “Small molecule compound” (Technoderma Medicines Pte Ltd, priority 2019, dated 2025).

Where only a bound is given, the exact number is not on record here.

Format in all cases: biochemical
Assay [1] addresses Tyk2 (Homo sapiens, UniProt P29597). As to the kind of experiment: Inhibition of JAK kinase activity, EZ Reader microfluidic phosphorylation of peptide substrate: Tyk2. Particulars: Tyk2 kinase 1 nM; highest final concentration 10 μM, 1:3 serial dilution, 8 points, duplicates. In a few lines:
(§1)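 Microfluidic mobility-shift assay reading fluorescent peptide substrate and product; kinases at 20 nM (JAK1) or 1 nM (JAK2, JAK3, Tyk2) in pH 7.4 HEPES with 10 mM MgCl2, run at room temperature to 20-30% conversion, then stopped with EDTA. Compounds tested from 10 μM top, 1:3 over 8 points in duplicate; IC50 fitted from % conversion.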

Assay [2] deals with JAK1 (Homo sapiens, UniProt P23458). Kind of assay: Inhibition of JAK kinase activity, EZ Reader microfluidic phosphorylation of peptide substrate: JAK1. To be noted: JAK1 kinase 20 nM; highest final concentration 10 μM, 1:3 serial dilution, 8 points, duplicates. Summed up:
as §1

The target in assay [3] is JAK2 (Homo sapiens, UniProt O60674). Kind of assay: Inhibition of JAK kinase activity, EZ Reader microfluidic phosphorylation of peptide substrate: JAK2. Particulars: JAK2 kinase 1 nM; highest final concentration 10 μM, 1:3 serial dilution, 8 points, duplicates. An excerpt: (§2) EZ Reader available from PerkinElmer can be used for detecting the phosphorylation of polypeptide substrates catalyzed by kinases. This device is based on microfluidic separation technology, and can directly detect fluorescence labeled substrates and products. The separation step is achieved in a microfluidic chip by controlling the pressure and electric field intensity. In a kinase experiment, the product conversion rate is generally controlled at 20-30%. This biological assay method is used for identifying the inhibitory effect of the compounds on JAK.
Sequence of JAK2 (O60674 whole entry): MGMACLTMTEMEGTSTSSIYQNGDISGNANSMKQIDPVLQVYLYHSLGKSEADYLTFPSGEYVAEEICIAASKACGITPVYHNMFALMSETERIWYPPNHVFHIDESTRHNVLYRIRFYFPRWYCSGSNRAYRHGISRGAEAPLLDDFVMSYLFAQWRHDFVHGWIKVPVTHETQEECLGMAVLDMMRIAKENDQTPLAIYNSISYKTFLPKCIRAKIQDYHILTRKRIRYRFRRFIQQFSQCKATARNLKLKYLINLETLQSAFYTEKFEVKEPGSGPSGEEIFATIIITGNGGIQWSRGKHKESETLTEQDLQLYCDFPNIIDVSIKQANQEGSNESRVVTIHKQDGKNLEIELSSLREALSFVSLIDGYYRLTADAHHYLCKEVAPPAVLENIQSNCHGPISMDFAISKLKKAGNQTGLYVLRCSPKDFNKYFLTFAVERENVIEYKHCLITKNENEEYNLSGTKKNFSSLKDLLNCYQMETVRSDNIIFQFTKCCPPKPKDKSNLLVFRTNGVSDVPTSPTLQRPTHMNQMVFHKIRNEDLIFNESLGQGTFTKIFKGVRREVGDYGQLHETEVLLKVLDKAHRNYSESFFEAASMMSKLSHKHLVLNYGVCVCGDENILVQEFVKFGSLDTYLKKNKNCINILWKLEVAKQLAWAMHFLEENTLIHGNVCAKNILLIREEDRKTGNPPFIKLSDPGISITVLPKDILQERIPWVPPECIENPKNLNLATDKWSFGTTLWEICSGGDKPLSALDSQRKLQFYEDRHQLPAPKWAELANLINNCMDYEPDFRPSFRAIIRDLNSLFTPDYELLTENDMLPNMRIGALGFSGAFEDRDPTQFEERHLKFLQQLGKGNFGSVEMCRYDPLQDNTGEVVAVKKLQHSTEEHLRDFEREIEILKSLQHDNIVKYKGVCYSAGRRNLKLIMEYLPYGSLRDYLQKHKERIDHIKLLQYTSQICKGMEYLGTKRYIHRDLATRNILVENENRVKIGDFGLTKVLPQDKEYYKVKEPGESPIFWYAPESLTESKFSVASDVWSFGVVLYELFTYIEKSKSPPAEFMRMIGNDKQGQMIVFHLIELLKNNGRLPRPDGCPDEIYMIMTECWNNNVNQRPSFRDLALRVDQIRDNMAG
(§3) The compound powder was dissolved in DMSO, sealed and stored in a refrigerator at −20° C. The in-house compound Ref1 was used as a positive control for testing of JAK1, JAK2 and Tyk2, and Ref2 was used as a positive control for testing of JAK3.
(§4) • S2.1. 1M HEPES buffer: 0.5M HEPES free acid and 0.5M HEPES sodium salt are weighed, added into ultrapure water for dissolution, brought to a desired volume, filtered and stored in a refrigerator at 4° C. • S2.2. 40 mM ATP solution: dissolved in a 50 mM HEPES buffer solution, prepared into 40 mM, aliquoted, and cryopreserved in a refrigerator at −20° C. • S2.3. 0.5% Tween 20: 100% Tween 20 was diluted with ultrapure water, and stored in a refrigerator at 4° C. • S2.4. 35% bovine serum albumin: a 35% bovine serum albumin solution is prepared in ultrapure water, aliquoted, and stored in a refrigerator at −20° C. • S2.5. 1M dithiothreitol solution: dithiothreitol is formulated into a 1M solution with ultrapure water, aliquoted, and stored in a refrigerator at −20° C. • S2.6. 0.5 mM Jaktide Peptide substrate solution: it is dissolved in 50 mM HEPES to 0.5 mM, aliquoted, and stored in a refrigerator at −20° C. • S2.7. 0.5 mM IRStide Peptide substrate solution: it is dissolved in 50 mM HEPES to 0.5 mM, aliquoted, and stored in a refrigerator at −20° C. • S2.8. Assay Buffer: 20 mM HEPES buffer, pH 7.4, 10 mM magnesium chloride, 0.01% bovine serum albumin BSA, 0.0005% Tween-20, and a 1 mM dithiothreitol solution. • S2.9. Stop Buffer: 180 mM HEPES buffer, 20 mM ethylenediamine tetraacetic acid (EDTA), and 0.2% Coating Reagent 3. • S2.10. Separation Buffer: 100 mM HEPES buffer, 10 mM EDTA, 0.0005% Tween 20, 0.1% Coating Reagent 3, and 1% dimethyl sulfoxide. 3. Experimental Procedures • S3.1. Preparation of compound plate
(§5) The compound is dissolved in dimethyl sulfoxide to 10 mM, a certain volume is taken and diluted to 0.6 mM, 10 μl of the diluted 0.6 mM solution is taken and added into a 384 microplate or 1:3 serial dilution, with a total of 8 concentration points. • S3.2. Compound layout
(§6) • positive control (HPE1): Ref1, final concentration: 10 μM • positive control (HPE1): Ref2, final concentration: 10 μM • negative control (ZPE): DMSO, with a final concentration of 1.6% • Compound: the highest final concentration at 10 μM, 1:3 serial dilution, with 8 concentration points and in duplicates. 4. Experimental operation steps • S4.1. the experimental plate was added with 250 nl of the compound per well with ECHO, and centrifuged at 1,000 rpm for 1 minute; • S4.2. the precipitate was added with 5 μl of the experimental buffer, and shaken for several seconds to fully dissolve the compound; • S4.3. the solution was added with 5 μl of a 3× substrate solution, as well as 5 μl of a 3× kinase solution, and centrifuged at 800 rpm for 1 minute; • S4.4. The final concentrations of JAK1, JAK2, JAK3 and Tyk2 kinases in the reaction system are 20, 1, 1 and 1 nM, respectively. • S4.5. the reaction system is incubated at room temperature, wherein the incubation time of each kinase is different, and there are differences in incubation time of different batches of kinases. • S4.6. When the reaction reaches 20%-30%, the reaction system is added with 15 μl of the stop buffer to terminate the reaction, and centrifuged at 1,000 rpm for 2 minutes. • S4.7. The precipitate was placed onto a EZ Reader for plate reading. • S4.8. […]

Assay [4] concerns the target T1, JAK3 (Homo sapiens, UniProt P52333).
T1 sequence (P52333 1-1124): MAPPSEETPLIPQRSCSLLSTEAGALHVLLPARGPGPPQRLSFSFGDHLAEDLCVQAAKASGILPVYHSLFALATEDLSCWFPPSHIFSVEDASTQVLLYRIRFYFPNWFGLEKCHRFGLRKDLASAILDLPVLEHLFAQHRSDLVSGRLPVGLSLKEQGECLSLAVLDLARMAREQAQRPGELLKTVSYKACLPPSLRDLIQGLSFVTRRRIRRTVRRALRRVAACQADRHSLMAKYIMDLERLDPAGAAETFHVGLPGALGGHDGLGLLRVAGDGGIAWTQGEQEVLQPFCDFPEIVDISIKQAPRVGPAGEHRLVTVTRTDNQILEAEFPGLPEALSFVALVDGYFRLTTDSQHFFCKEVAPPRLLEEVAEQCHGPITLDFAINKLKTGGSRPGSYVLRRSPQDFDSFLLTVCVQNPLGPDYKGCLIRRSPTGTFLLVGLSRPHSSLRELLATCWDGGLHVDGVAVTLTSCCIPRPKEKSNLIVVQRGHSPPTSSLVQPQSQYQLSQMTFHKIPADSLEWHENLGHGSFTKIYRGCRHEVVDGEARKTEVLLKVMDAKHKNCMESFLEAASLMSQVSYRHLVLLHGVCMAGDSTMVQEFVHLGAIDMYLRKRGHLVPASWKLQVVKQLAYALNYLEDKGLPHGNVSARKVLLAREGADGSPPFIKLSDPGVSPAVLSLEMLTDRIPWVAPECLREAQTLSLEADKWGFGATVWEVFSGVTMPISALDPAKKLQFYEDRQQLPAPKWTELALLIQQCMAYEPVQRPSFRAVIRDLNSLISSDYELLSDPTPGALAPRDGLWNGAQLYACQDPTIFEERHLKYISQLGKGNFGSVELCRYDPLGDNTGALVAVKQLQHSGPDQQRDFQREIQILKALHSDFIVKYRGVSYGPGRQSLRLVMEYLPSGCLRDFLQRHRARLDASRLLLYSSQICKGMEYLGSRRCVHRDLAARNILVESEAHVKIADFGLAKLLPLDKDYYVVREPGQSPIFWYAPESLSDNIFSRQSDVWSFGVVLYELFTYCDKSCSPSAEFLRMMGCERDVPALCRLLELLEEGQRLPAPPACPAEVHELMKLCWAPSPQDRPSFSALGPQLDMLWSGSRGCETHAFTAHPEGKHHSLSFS
As to the kind of experiment: Inhibition of JAK kinase activity, EZ Reader microfluidic phosphorylation of peptide substrate: JAK3. To be noted: JAK3 kinase 1 nM; highest final concentration 10 μM, 1:3 serial dilution, 8 points, duplicates.
Description: as §2, §3, §4, §5, §6

Sequence of Tyk2 (P29597 whole entry): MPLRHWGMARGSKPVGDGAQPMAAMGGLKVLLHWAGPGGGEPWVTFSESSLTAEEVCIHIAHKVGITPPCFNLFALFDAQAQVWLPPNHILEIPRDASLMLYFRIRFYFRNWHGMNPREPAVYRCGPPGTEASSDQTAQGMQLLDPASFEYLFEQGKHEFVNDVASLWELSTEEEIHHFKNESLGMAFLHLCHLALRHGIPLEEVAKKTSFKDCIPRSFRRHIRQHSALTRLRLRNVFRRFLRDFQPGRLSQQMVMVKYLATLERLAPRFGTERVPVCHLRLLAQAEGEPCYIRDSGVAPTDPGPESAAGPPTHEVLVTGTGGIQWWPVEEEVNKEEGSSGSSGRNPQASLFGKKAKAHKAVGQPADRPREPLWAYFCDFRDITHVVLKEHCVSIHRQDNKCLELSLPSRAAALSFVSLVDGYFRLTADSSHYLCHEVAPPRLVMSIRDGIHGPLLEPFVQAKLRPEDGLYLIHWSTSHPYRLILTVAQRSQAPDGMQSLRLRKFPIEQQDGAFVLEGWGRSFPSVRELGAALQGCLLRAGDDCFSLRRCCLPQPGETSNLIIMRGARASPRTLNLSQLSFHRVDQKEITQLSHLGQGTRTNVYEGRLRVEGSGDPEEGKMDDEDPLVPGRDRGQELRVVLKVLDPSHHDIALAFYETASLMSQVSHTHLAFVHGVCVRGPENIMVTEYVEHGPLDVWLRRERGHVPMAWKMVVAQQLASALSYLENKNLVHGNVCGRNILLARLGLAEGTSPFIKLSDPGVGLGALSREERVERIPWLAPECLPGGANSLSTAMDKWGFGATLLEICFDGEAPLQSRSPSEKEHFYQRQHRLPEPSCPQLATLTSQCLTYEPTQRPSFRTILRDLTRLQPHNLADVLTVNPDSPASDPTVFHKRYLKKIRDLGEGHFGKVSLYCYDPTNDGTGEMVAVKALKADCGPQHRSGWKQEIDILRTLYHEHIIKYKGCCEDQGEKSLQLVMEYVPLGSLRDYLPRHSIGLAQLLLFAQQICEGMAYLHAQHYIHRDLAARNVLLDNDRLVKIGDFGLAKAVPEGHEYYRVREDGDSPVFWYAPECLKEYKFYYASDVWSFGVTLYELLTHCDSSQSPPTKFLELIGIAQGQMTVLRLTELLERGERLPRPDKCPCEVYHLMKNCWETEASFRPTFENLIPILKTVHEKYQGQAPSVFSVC
Sequence of JAK1 (P23458 whole entry): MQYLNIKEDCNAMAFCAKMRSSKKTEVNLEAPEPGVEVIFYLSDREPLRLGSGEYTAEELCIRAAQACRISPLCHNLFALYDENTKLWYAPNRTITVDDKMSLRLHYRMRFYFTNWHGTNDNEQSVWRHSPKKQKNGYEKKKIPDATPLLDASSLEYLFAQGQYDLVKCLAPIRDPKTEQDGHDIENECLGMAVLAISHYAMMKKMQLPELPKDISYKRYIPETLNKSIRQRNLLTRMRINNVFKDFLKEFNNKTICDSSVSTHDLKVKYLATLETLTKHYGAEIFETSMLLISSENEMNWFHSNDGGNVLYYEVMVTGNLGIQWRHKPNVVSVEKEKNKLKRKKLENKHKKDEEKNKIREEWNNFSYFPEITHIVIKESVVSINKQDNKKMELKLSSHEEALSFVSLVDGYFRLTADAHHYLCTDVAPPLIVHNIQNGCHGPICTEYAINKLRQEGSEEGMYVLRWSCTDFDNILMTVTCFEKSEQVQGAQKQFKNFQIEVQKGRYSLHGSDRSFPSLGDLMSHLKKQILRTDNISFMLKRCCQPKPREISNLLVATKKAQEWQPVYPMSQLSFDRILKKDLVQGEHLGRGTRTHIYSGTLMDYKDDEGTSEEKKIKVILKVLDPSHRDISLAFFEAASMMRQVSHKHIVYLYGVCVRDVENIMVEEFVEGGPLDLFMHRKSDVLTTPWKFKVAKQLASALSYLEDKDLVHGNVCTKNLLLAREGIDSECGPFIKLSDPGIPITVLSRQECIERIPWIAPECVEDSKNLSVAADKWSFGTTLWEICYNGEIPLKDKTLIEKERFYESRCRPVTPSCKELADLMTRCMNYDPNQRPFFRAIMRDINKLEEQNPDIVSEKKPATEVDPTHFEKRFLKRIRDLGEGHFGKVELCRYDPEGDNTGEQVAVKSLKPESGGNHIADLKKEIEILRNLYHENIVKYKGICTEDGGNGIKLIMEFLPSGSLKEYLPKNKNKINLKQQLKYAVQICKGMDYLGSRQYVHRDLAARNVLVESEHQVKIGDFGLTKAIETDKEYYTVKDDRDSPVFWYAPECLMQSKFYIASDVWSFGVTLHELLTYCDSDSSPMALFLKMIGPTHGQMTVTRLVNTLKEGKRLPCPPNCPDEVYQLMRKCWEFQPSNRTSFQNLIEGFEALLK

For `CCS(=O)(=O)N1CC(n2cc(-c3ccnc(Nc4cnn(C)c4)n3)cn2)C1` [TDM-180665, 4-(1-(1-(ethylsulfonyl)azetidin-3-yl)-1H-pyrazol-4-yl)-N-(1-methyl-1H-pyrazol-4-yl)pyrimidin-2-amine], the IC50 (usually the concentration that inhibits the measured activity by half) in assay [1] is 1 to 10 µM; in assay [2] it was 1 to 10 µM; in assay [3], 1 to 10 µM; in assay [4], at least 10 µM.
As to `CCCS(=O)(=O)N1CC(n2cc(-c3ccnc(Nc4cnn(C)c4)n3)cn2)C1` [TDM-180666, N-(1-methyl-1H-pyrazol-4-yl)-4-(1-(1-(propylsulfonyl)azetidin-3-yl)-1H-pyrazol-4-yl)pyrimidin-2-amine], the IC50 in assay [1] was at least 10 µM; in assay [2] it was at least 10 µM; in assay [3] it was 1 to 10 µM; in assay [4], at least 10 µM.
Regarding `Cn1cc(Nc2nccc(-c3cnn(C4CN(C(=O)C5CC5)C4)c3)n2)cn1` [TDM-180667, cyclopropyl(3-(4-(2-((1-methyl-1H-pyrazol-4-yl)amino)pyrimidin-4-yl)-1H-pyrazol-1-yl)azetidin-1-yl)ketone], the IC50 in assay [1], in assay [2], in assay [3] and in assay [4] was at least 10 µM in each case.
Take `Cn1cc(Nc2nccc(-c3cnn(C4CN(C(=O)C5CC5(F)F)C4)c3)n2)cn1` (stereo not drawn) [TDM-180668, (2,2-difluorocyclopropyl)(3-(4-(2-((1-methyl-1H-pyrazol-4-yl)amino)pyrimidin-4-yl)-1H-pyrazol-1-yl)azetidin-1-yl)ketone]: the IC50 in assay [1], in assay [2], in assay [3] and in assay [4] was at least 10 µM each time.
On to `Cn1cc(Nc2nccc(-c3cnn(C4CN(C(=O)CC(F)(F)F)C4)c3)n2)cn1` [TDM-180669, 3,3,3-trifluoro-1-(3-(4-(2-((1-methyl-1H-pyrazol-4-yl)amino)pyrimidin-4-yl)-1H-pyrazol-1-yl)azetidin-yl)propan-1-one], for which the IC50 in assay [1], in assay [2], in assay [3] and in assay [4] was at least 10 µM throughout.
For `CCCC(=O)N1CC(n2cc(-c3ccnc(Nc4cnn(C)c4)n3)cn2)C1` [TDM-180670], the IC50 in assay [1], in assay [2], in assay [3] and in assay [4] was at least 10 µM throughout.
Turning to `Cn1cc(Nc2nccc(-c3cnn(C4CN(C(=O)CC#N)C4)c3)n2)cn1` [TDM-180671, 3-(3-(4-(2-((1-methyl-1H-pyrazol-4-yl)amino)pyrimidin-4-yl)-1H-pyrazol-1-yl)azetidin-1-yl)-3-oxopropanenitrile], the IC50 in assay [1], in assay [2], in assay [3] and in assay [4] was at least 10 µM each time.
Take `Cn1cc(Nc2nccc(-c3cnn(C4CN(C(=O)CO)C4)c3)n2)cn1` [TDM-180672, 2-hydroxy-1-(3(4-(2-((1-methyl-1H-pyrazol-4-yl)amino)pyrimidin-4-yl)-1H-pyrazol-1-yl)azetidin-1-yl)ethanone]: the IC50 in assay [1], in assay [2], in assay [3] and in assay [4] was at least 10 µM each time.
With `Cn1cc(Nc2nccc(-c3cnn(C4CCN(C(=O)C5CC5)CC4)c3)n2)cn1` [TDM-180673, cyclopropyl(4-(4-(2-((1-methyl-1H-pyrazol-4-yl)amino)pyrimidin-4-yl)-1H-pyrazol-1-yl)piperidin-1-yl)ketone], the IC50 in assay [1], in assay [2], in assay [3] and in assay [4] was at least 10 µM each time.
As to `CCS(=O)(=O)N1CCC(n2cc(-c3ccnc(Nc4cnn(C)c4)n3)cn2)CC1` [TDM-180674, 4-(1-(1-(ethylsulfonyl)piperidin-4-yl)-1H-pyrazol-4-yl)-N-(1-methyl-1H-pyrazol-4-yl)pyrimidin-2-amine], the IC50 in assay [1] was 1 to 10 µM; in assay [2], at least 10 µM; in assay [3] it was 1 to 10 µM; in assay [4] it was at least 10 µM.
As to `CCCS(=O)(=O)N1CCC(n2cc(-c3ccnc(Nc4cnn(C)c4)n3)cn2)CC1` [TDM-180675, N-(1-methyl-1H-pyrazol-4-yl)-4-(1-(1-(propylsulfonyl)piperidin-4-yl)-1H-pyrazol-4-yl)pyrimidin-2-amine], the half-inhibitory concentration (IC50) is at least 10 µM in assay [1], at least 10 µM in assay [2], 1 to 10 µM in assay [3] and at least 10 µM in assay [4].
Regarding `CCC(=O)N1CCC(n2cc(-c3ccnc(Nc4cnn(C)c4)n3)cn2)CC1` [TDM-180676, 1-(4-(4-(2-((1-methyl-1H-pyrazol-4-yl)amino)pyrimidin-4-yl)-1H-pyrazol-1-yl)piperidin-1-yl)propan-1-one], the 50% inhibitory concentration (IC50) in assay [1], in assay [2], in assay [3] and in assay [4] was at least 10 µM throughout.
